Patent publication US20070259866A1, “Method of Adenovirus, HIV and HPV Prophylaxis” (priority 1999, published 2007)

Legend:
[1] = tested on: NL-HX-ADA (molecularly cloned macrophage-tropic type of HIV-1); test: Time course of anti-HIV effect of CTC96 (neutralization vs contact time); format: cell-based
Procedure: • Stock virus: NL-HX-ADA ˜5.5 μg/ml p24 (This is a molecularly cloned macrophage-tropic type of HIV-1). Virus was used to infect cells at 1:4,000 final dilution (˜1.4 ng/ml p24). Stock CTC-96: 10 mg/ml prepared directly in RPMI 1640 Method: Concentrated stock solution of virus was treated for 1 hour with equal volume of medium containing the drug at the indicated concentrations (1:2 dilution). The virus/drug mixture was then diluted 1,000-fold (1:2,000 dilution) and then added to an equal volume of PHA-activated humans PBMCs (1:4,000 final dilution) to allow virus replication to occur. The extent of infection was measured after 4 days by a fluorescent focus assay and compared to that of a control culture not containing any drug.
Using similar conditions as described above, virus was incubated with 0.625 mg/ml CTC96 for the indicated time period before 1,000-fold dilution and addition to cells.
Virus was incubated with four different concentrations of CTC96 for the indicated time periods, and then the extent of inactivation tested as previously described. Numbers in parentheses indicate results obtained in the initial analysis for the lowest dose ([…]) of CTC96.

[2] = tested on: human papillomavirus type 11 (HPV-11); test: HPV-11 pre-treated with CTC 96, subcutaneous human foreskin xenograft infection model in SCID mouse, graft size; format: in vivo; settings: for cGMD of the Grafts, Lower Quartile / cGMD of the Grafts, Median / cGMD of the Grafts, Upper Quartile: 12 weeks; for Composite Geometric Mean Diameters (cGMD) of the Grafts, Means: grafts at 12 weeks, replicates 1, 3, 4
Procedure: The activity of CTC 96 on human papillomavirus type 11 (HPV-11) prior to infection was tested by using a subcutaneous human xenograft infection model in the severe combined immunodeficiency (SCID) mouse.
Three different concentrations, 1%, 0.2% and 0.05%, of CTC 96 and a control (normal saline) were evaluated in HPV-11-infected internal human xenograft in the SCID mouse. The viral suspension was exposed for one hour with one of the four CTC 96 concentrations before being used to infect the human foreskin grafts.
Each experiment was done in quadruplicate. Twelve mice were used in each replicate. For each replicate, the four treatment groups were made of 3 mice (3 animals per cage). Each mouse received under the skin of each flank one HPV-11-infected foreskin fragment. Two foreskin donors were used, one for the fragments implanted under the left flank and a different one for the fragments implanted under the right flank. The HPV-11-infected grafts were left to grow for 12 weeks, while the mice weights were monitored every other week. At the end of the 12 weeks, the animals were sacrificed and the grafts recovered, measured and processed.
CTC 96 was applied to the virus directly, prior to infection. Just prior to exposure of the virus to CTC 96, 750 μl of normal saline was added to a vial containing 15 mg of dry CTC 96. The resulting solution contained 2% of CTC 96.
CTC 96 was incubated for 1 hour at 37° C. with the viral suspension, which was then used to infect the human foreskin fragments.
Neonatal foreskins from routine circumcision were collected at the nursery of a local hospital and placed in transport medium (Minimum Essential Medium, penicillin 25,000 U/ml, streptomycin 25 mg/mL), In a Petri dish, the foreskin's occluded side was removed using a scalpel, leaving the exposed skin prepared as a split-thickness graft. The foreskin was punched out using a 3 mm biopsy punch. One fragment was fixed in buffered formalin to serve as control in the histologic and immunocytochemical analyses. 3-4 fragments were snap frozen in liquid nitrogen, to serve as controls in the RT-PCR assay. The other fragments were split equally into four groups. Each group of fragments was dispensed in one of the vials containing 500 μl of pretreated viral suspension.
Two foreskin donors collected within 24 hours of the procedure, were used in each replicate experiment. Each viral suspension received the foreskin fragments of both foreskin donors. To recognize the foreskin donors, in each experiment we used […]. The fragments were vortexed in the suspension and left to incubate for 60 minutes at 37° C. before being grafted.
For the grafting, the mouse was anesthetized in an anesthesia chamber with 5% halothane to 2 liters of oxygen, until no corneal or pedal reflexes could be elicited. The animal was removed from the chamber, and the halothane adjusted to 2-2.5% to 1 liter of oxygen for continued administration via nose cone for the duration of the surgical procedure. The animals ears were notched for identification. The back skin was prepped with a povidone iodine swab. A 1 cm vertical incision of the skin was made on the flank with scissors. Through that incision, the subcutis was bluntly dissected with closed scissors caudad to the wound. One foreskin fragment from the […] donor was inserted in the caudad pocket, epidermis facing the mouse's skin, mucosal side in contact with the musculo-fascial plane (panniculus camosus) of the mouse. The incision was closed with two metal clips. The other side was grafted in the same manner with one foreskin fragment from the […] donor.
The animals were otherwise sacrificed by cervical dislocation 12 weeks after graft implantation. Length, width, and height of the graft were measured and recorded. The graft were then removed and split in at least two parts. One part was fixed in buffered formalin. […]

adenovirus = test: Inhibition of adenovirus infection in 293T cells in vitro; format: cell-based
Source text: Compound 96 inhibited adenovirus infection 100% in 293T cells in vitro.

[3] = [CTC96] 0.625 μg/ml, contact time 2 minutes
[4] = [CTC96] 0.625 μg/ml, contact time 4 minutes
[5] = [CTC96] 0.625 μg/ml, contact time 8 minutes
[6] = [CTC96] 0.625 μg/ml, contact time 16 minutes
[7] = [CTC96] 0.625 μg/ml, contact time 32 minutes
[8] = [CTC96] 0.625 μg/ml, contact time 64 minutes

## CC1=CC(C)=[N+]2CC[N+]3=C(C)C=C(C)[O][Co-4]23([n+]2cc[nH]c2C)([n+]2cc[nH]c2C)[O]1.[Br-] [Compound 96]
[1]; [3]
  % Neutralization: 15%
  % Neutralization (in parentheses: initial analysis): 7%
[1]; [4]
  % Neutralization: 25%
  % Neutralization (in parentheses: initial analysis): 43%
[1]; [5]
  % Neutralization: 41%
  % Neutralization (in parentheses: initial analysis): 56%
[1]; [6]
  % Neutralization: 56%
  % Neutralization (in parentheses: initial analysis): 64%
[1]; [7]
  % Neutralization: 65%
  % Neutralization (in parentheses: initial analysis): 76%
[1]; [8]
  % Neutralization: 80%
  % Neutralization (in parentheses: initial analysis): 100%
[1]; [CTC96] 1.25 μg/ml, contact time 2 minutes
  % Neutralization: 4%
[1]; [CTC96] 1.25 μg/ml, contact time 4 minutes
  % Neutralization: 17%
[1]; [CTC96] 1.25 μg/ml, contact time 8 minutes
  % Neutralization: 42%
[1]; [CTC96] 1.25 μg/ml, contact time 16 minutes
  % Neutralization: 61%
[1]; [CTC96] 1.25 μg/ml, contact time 32 minutes
  % Neutralization: 78%
[1]; [CTC96] 1.25 μg/ml, contact time 64 minutes
  % Neutralization: 94%
[1]; [CTC96] 2.5 μg/ml, contact time 2 minutes
  % Neutralization: 21%
[1]; [CTC96] 2.5 μg/ml, contact time 4 minutes
  % Neutralization: 25%
[1]; [CTC96] 2.5 μg/ml, contact time 8 minutes
  % Neutralization: 47%
[1]; [CTC96] 2.5 μg/ml, contact time 16 minutes
  % Neutralization: 72%
[1]; [CTC96] 2.5 μg/ml, contact time 32 minutes
  % Neutralization: 86%
[1]; [CTC96] 2.5 μg/ml, contact time 64 minutes
  % Neutralization: 100%
[1]; [CTC96] 5 μg/ml, contact time 2 minutes
  % Neutralization: 37%
[1]; [CTC96] 5 μg/ml, contact time 4 minutes
  % Neutralization: 52%
[1]; [CTC96] 5 μg/ml, contact time 8 minutes
  % Neutralization: 65%
[1]; [CTC96] 5 μg/ml, contact time 16 minutes
  % Neutralization: 78%
[1]; [CTC96] 5 μg/ml, contact time 32 minutes
  % Neutralization: 98%
[1]; [CTC96] 5 μg/ml, contact time 64 minutes
  % Neutralization: 100%
[2]; 0.05% concentration
  effect on graft size: effective
[2]; CTC 96 0.05%
  cGMD of the Grafts, Lower Quartile: 1.94 mm
  cGMD of the Grafts, Median: 2.01 mm
  cGMD of the Grafts, Upper Quartile: 2.13 mm
[2]; CTC 96 0.2%
  cGMD of the Grafts, Lower Quartile: 1.70 mm
  cGMD of the Grafts, Median: 1.88 mm
  cGMD of the Grafts, Upper Quartile: 2.05 mm
[2]; CTC 96 1%
  cGMD of the Grafts, Lower Quartile: 1.82 mm
  cGMD of the Grafts, Median: 1.94 mm
  cGMD of the Grafts, Upper Quartile: 2.08 mm
[2]; regardless of the concentration used
  HPV-11-induced growth of the grafts: limited the HPV-11-inducted growth of the grafts
[2]; virus exposed 1 hour to CTC 96 0.05%
  Composite Geometric Mean Diameters (cGMD) of the Grafts, Means: 2.02 mm
[2]; virus exposed 1 hour to CTC 96 0.2%
  Composite Geometric Mean Diameters (cGMD) of the Grafts, Means: 1.86 mm
[2]; virus exposed 1 hour to CTC 96 1%
  Composite Geometric Mean Diameters (cGMD) of the Grafts, Means: 1.95 mm
adenovirus
  inhibited adenovirus infection: 100%
